# Assay results published in ChEMBL document CHEMBL1909046, “DrugMatrix in vitro pharmacology data”.
# How the values were obtained:
# [1] = molecular target: T1, 5-hydroxytryptamine receptor 2C (Homo sapiens, UniProt P28335); assay: DRUGMATRIX: Serotonin (5-Hydroxytryptamine) 5-HT2C radioligand binding (ligand: [3H] Mesulergine); type: cell membranes, CHO-K1, Membrane; conditions: Not Active = under 50% inhibition at 10 µM; for Ki: read-out: Ki
# T1 sequence (P28335 whole entry): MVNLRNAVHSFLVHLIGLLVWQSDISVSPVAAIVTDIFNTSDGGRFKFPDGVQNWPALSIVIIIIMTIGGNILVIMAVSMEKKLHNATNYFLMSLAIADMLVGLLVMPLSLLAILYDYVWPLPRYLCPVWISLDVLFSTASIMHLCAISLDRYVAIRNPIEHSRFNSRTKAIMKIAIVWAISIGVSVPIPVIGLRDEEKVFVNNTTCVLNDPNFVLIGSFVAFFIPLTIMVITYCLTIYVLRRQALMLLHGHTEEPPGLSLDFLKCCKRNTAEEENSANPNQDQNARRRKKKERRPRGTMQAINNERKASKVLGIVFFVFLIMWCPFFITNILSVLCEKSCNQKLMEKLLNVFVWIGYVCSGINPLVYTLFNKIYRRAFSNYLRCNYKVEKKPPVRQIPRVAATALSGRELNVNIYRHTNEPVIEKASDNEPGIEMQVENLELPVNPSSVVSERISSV
# Substance-P receptor = Substance-P receptor (Homo sapiens, UniProt P25103); type: cell membranes, Membrane; conditions: cho; also: in other assays of this panel Not Active means under 50% inhibition at 10 µM
# Cannabinoid receptor 1 = Cannabinoid receptor 1 (Homo sapiens, UniProt P21554); type: cell membranes, Membrane; conditions: chem-1; also: in other assays of this panel Not Active means under 50% inhibition at 10 µM
# [2] = molecular target: T2, 3-hydroxy-3-methylglutaryl-coenzyme A reductase (Homo sapiens, UniProt P04035); parameters: species or system Escherichia coli;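 also: enzyme inhibition assay of HMG-CoA reductase using radiolabeled [14C]HMG-CoA as substrate; in other assays of this panel Not Active means under 50% inhibition at 10 µM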
# T2 sequence (P04035 whole entry): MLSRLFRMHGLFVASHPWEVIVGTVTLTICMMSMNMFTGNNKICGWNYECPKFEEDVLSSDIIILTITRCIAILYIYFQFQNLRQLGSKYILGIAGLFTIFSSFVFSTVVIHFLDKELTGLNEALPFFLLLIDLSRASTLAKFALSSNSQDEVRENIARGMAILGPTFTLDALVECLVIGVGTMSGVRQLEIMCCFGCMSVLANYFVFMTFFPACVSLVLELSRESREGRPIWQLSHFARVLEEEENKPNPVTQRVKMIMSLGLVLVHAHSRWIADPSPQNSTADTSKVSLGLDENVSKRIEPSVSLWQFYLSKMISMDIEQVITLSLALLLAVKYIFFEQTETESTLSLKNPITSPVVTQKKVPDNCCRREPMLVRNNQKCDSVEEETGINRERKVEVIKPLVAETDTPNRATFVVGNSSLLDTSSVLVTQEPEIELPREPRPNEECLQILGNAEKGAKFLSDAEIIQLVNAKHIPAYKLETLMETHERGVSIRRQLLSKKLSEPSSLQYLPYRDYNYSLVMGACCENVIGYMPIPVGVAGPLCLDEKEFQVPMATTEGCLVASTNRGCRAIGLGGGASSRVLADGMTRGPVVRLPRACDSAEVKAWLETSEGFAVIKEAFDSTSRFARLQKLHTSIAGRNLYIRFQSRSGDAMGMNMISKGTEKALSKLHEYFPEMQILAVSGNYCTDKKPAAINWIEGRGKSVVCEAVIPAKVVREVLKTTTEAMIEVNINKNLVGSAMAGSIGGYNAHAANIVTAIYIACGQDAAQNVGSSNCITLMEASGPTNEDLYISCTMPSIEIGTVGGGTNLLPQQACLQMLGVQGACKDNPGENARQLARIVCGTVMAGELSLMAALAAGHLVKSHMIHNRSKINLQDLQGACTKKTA
# [3] = DRUGMATRIX: Nicotinic Acetylcholine radioligand binding (ligand: [125I] Epibatidine); type: cell membranes, Membrane; conditions: imr-32; Not Active = under 50% inhibition at 10 µM
# Adenosine receptor A1 = molecular target: T3, Adenosine receptor A1 (Homo sapiens, UniProt P30542); type: cell membranes, CHO, Membrane; conditions: for Ki: read-out: Ki;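 as to all read-outs here: radioligand binding assay at the adenosine A1 receptor, with DPCPX serving as the labelled ligand; in other assays of this panel Not Active means under 50% inhibition at 10 µM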
# T3 sequence (P30542 whole entry): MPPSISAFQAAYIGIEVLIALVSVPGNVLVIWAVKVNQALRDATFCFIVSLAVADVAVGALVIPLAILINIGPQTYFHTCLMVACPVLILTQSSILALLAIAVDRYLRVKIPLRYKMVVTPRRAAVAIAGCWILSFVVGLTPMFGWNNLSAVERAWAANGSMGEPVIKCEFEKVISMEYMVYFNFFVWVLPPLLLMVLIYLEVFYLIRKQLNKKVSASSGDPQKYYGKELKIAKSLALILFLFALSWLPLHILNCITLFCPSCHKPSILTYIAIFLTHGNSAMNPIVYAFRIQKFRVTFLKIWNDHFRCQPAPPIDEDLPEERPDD
# [4] = molecular target: Tyrosine-protein kinase Lck (Homo sapiens, UniProt P06239); assay: DRUGMATRIX: Protein Tyrosine Kinase, LCK enzyme inhibition (substrate: Poly(Glu:Tyr)); type: cell-based, Insect cells; conditions: insect cells; Not Active = under 50% inhibition at 10 µM
# Chain of Tyrosine-protein kinase Lck (P06239 whole entry): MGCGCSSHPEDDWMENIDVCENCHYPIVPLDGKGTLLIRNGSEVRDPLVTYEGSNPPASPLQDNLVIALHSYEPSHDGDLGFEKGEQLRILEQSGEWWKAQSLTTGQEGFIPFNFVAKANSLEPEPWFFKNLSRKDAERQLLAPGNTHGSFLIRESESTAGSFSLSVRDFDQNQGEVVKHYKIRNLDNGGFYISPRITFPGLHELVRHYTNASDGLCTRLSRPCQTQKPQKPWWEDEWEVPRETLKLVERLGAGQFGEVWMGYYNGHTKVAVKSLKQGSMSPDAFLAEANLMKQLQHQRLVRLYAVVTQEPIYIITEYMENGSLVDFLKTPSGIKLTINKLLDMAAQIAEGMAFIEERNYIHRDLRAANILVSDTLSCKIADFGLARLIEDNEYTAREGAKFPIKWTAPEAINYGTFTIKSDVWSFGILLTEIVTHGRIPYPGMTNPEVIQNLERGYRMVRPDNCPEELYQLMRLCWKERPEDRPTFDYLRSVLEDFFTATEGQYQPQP
# Chain of Substance-P receptor (P25103 whole entry): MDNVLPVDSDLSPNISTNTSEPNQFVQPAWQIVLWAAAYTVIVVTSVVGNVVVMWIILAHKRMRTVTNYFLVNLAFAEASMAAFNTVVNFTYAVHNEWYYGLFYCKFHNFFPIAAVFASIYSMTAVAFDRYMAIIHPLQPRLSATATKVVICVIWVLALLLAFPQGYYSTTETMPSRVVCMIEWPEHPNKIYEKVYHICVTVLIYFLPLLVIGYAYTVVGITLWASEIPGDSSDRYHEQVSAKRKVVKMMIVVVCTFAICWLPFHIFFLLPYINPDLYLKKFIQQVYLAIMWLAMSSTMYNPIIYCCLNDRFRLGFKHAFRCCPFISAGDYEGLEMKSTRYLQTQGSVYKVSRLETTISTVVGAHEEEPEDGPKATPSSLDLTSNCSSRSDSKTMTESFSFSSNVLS
# Chain of Cannabinoid receptor 1 (P21554 whole entry): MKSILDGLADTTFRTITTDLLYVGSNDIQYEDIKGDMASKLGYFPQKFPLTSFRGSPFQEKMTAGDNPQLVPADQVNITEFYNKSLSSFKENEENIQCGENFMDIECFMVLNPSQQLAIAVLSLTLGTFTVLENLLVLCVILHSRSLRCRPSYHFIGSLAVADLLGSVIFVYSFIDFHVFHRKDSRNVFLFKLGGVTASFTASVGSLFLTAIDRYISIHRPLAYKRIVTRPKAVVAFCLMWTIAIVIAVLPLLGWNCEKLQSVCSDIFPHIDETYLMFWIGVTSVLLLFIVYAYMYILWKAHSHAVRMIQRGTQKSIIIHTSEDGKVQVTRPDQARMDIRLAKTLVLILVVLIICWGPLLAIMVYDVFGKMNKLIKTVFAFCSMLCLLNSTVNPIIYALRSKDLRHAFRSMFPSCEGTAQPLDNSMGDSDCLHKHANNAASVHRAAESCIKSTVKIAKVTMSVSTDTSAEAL
Compound,IC50 ([1]; read-out: IC50),Ki [1],IC50 (Substance-P receptor),IC50 (Cannabinoid receptor 1),IC50 [2],IC50 [3],Ki [3],IC50 (Adenosine receptor A1; read-out: IC50),Ki (Adenosine receptor A1),IC50 ([1]; cho-k1),IC50 [4],IC50 (Adenosine receptor A1; cho),Ki (Substance-P receptor)
COc1cc(N)nc2[nH]c(-c3ccc(F)cc3)c(-c3ccncc3)c12,1240 nM,648 nM,Not Active,Not Active,Not Active,Not Active,Not Active,887 nM,518 nM,,,,
CNS(=O)(=O)Cc1ccc2[nH]cc(CCN(C)C)c2c1,,,Not Active,Not Active,Not Active,Not Active,Not Active,,,Not Active,Not Active,Not Active,
CCCc1nn(C)c2c(=O)[nH]c(-c3cc(S(=O)(=O)N4CCN(C)CC4)ccc3OCC)nc12,,,Not Active,Not Active,Not Active,Not Active,Not Active,1490 nM,871 nM,Not Active,Not Active,,
COc1ccc(/C=C/C(=O)Nc2ccccc2C(=O)O)cc1OC,,,Not Active,Not Active,Not Active,Not Active,Not Active,,,Not Active,Not Active,Not Active,
CCOC(N)=O,,,Not Active,Not Active,Not Active,Not Active,Not Active,,,Not Active,Not Active,Not Active,
CC(=O)Nc1nnc(S(N)(=O)=O)s1 [ACETAZOLAMIDE],,,Not Active,Not Active,Not Active,,,,,Not Active,Not Active,Not Active,
O=c1[nH]c2ccccc2n1CCCN1CCC(n2c(=O)[nH]c3cc(Cl)ccc32)CC1 [DOMPERIDONE],,,Not Active,Not Active,Not Active,,,,,,Not Active,Not Active,
CC1=C(CC(=O)O)c2cc(F)ccc2/C1=C\c1ccc(S(C)(=O)=O)cc1 [EXISULIND],,,Not Active,Not Active,Not Active,Not Active,Not Active,,,Not Active,Not Active,Not Active,
CC(C)OC(=O)C(C)(C)Oc1ccc(C(=O)c2ccc(Cl)cc2)cc1 [FENOFIBRATE],,,Not Active,Not Active,Not Active,,,,,,Not Active,Not Active,
OCCN1CCN(CCCN2c3ccccc3Sc3ccc(C(F)(F)F)cc32)CC1 [FLUPHENAZINE],,,Not Active,Not Active,Not Active,,,,,,Not Active,Not Active,
CN1C2CCCC1CC(NC(=O)c1nn(C)c3ccccc13)C2 (stereo not drawn) [GRANISETRON],,,Not Active,Not Active,Not Active,,,,,Not Active,Not Active,Not Active,
Nc1nc2c(c(=O)[nH]1)N(C=O)C(CNc1ccc(C(=O)N[C@@H](CCC(=O)O)C(=O)O)cc1)CN2 (stereo partly drawn) [LEUCOVORIN],,,Not Active,Not Active,Not Active,Not Active,Not Active,,,Not Active,Not Active,Not Active,
C[C@@H](O)[C@H]1C(=O)N2C(C(=O)O)=C(S[C@@H]3CN[C@H](C(=O)N(C)C)C3)[C@H](C)[C@H]12 [MEROPENEM],,,Not Active,Not Active,Not Active,Not Active,Not Active,,,Not Active,Not Active,Not Active,
CC[C@@H](CO)NC(=O)[C@@H]1C=C2c3cccc4c3c(cn4C)C[C@H]2N(C)C1 [METHYSERGIDE],2.09 nM,1.09 nM,Not Active,Not Active,Not Active,,,,,,Not Active,Not Active,
CCN(CC)CC#CCOC(=O)C(O)(c1ccccc1)C1CCCCC1 (stereo not drawn) [OXYBUTYNIN],,,,Not Active,Not Active,,,,,Not Active,Not Active,Not Active,Not Active
O=P(O)(O)C(O)(Cc1cccnc1)P(=O)(O)O [RISEDRONIC ACID],,,Not Active,Not Active,Not Active,Not Active,Not Active,,,Not Active,Not Active,Not Active,
CN(CCOc1ccc(CC2SC(=O)NC2=O)cc1)c1ccccn1 (stereo not drawn) [ROSIGLITAZONE],,,Not Active,Not Active,Not Active,Not Active,Not Active,,,Not Active,Not Active,Not Active,
C=C(C)[C@H]1Cc2c(ccc3c2O[C@@H]2COc4cc(OC)c(OC)cc4[C@@H]2C3=O)O1 [ROTENONE],,,Not Active,Not Active,Not Active,Not Active,Not Active,,,Not Active,Not Active,Not Active,
C#CCN(C)[C@H](C)Cc1ccccc1 [SELEGILINE],,,Not Active,Not Active,Not Active,Not Active,Not Active,,,Not Active,Not Active,Not Active,
CO[C@H]1C[C@@H]2CC[C@@H](C)[C@@](O)(O2)C(=O)C(=O)N2CCCC[C@H]2C(=O)O[C@H]([C@H](C)C[C@@H]2CC[C@@H](O)[C@H](OC)C2)CC(=O)[C@H](C)/C=C(\C)[C@@H](O)[C@@H](OC)C(=O)[C@H](C)C[C@H](C)/C=C/C=C/C=C/1C [SIROLIMUS],,,Not Active,Not Active,Not Active,Not Active,Not Active,,,Not Active,Not Active,Not Active,
CN[C@@H]1[C@H](O)[C@H](NC)[C@H]2O[C@@]3(O)C(=O)C[C@@H](C)O[C@H]3O[C@@H]2[C@H]1O [SPECTINOMYCIN],,,Not Active,Not Active,Not Active,Not Active,Not Active,,,Not Active,Not Active,Not Active,
Nc1ccc(S(=O)(=O)Nc2ncccn2)cc1 [SULFADIAZINE],,,Not Active,Not Active,Not Active,Not Active,Not Active,,,Not Active,Not Active,Not Active,
COc1ncnc(NS(=O)(=O)c2ccc(N)cc2)c1OC [SULFADOXINE],,,Not Active,Not Active,Not Active,Not Active,Not Active,,,Not Active,Not Active,Not Active,
Nc1ccc(S(=O)(=O)Nc2nccs2)cc1 [SULFATHIAZOLE],,,Not Active,Not Active,Not Active,Not Active,Not Active,,,Not Active,Not Active,Not Active,
O=c1n(CCCN2CCN(c3cccc(Cl)c3)CC2)nc2ccccn12 [TRAZODONE],,,Not Active,Not Active,Not Active,,,,,,Not Active,Not Active,
